The values below come from paper PMC12584752, “Covalent fragment screening to inhibit the E3 ligase activity of bacterial NEL enzymes SspH1 and SspH2” (RSC Chemical Biology, 2025).

Each structure is given as a SMILES string.

The target of this experiment is SspH1 (161–700) (Salmonella typhimurium, UniProt D0ZVG2). As to the kind of experiment: Round 1 intact protein LC-MS covalent fragment labelling screen and dilution series. In kind it is binding. Details: Recombinant IpaH9.8 (21–545) and SspH1 (161–700) were incubated at 0.5 μM; His-tag (N, cleaved yes); made in house; host or cells: E. coli BL21. Particulars: round 1 screen; 0.5 μM SspH1, 50 μM fragments, 24 hours at 4 °C. As for the experimental part: A diverse library of 227 compounds with chloroacetamide warheads, featuring a diversity of molecular weight (162–321 Da) and clog P (−1.4 to 3.4) (Table S1), were screened against Salmonella and Shigella NEL E3 ligases using our intact protein liquid chromatography mass spectrometry (LC-MS) platform as previously described.[39,40] Briefly, recombinant SspH1 (161–700[30]) and IpaH9.8 (21–545[29]) (Fig. 1A and B) were incubated with 50 μM fragments for 24 hours at 4 °C before analysis by LC-MS (Fig. 1C). Raw counts were deconvoluted and the labelling percentage calculated by detection and comparison of protein and protein-fragment molecular weights.
SspH1 (161–700), sequence (D0ZVG2 161-700): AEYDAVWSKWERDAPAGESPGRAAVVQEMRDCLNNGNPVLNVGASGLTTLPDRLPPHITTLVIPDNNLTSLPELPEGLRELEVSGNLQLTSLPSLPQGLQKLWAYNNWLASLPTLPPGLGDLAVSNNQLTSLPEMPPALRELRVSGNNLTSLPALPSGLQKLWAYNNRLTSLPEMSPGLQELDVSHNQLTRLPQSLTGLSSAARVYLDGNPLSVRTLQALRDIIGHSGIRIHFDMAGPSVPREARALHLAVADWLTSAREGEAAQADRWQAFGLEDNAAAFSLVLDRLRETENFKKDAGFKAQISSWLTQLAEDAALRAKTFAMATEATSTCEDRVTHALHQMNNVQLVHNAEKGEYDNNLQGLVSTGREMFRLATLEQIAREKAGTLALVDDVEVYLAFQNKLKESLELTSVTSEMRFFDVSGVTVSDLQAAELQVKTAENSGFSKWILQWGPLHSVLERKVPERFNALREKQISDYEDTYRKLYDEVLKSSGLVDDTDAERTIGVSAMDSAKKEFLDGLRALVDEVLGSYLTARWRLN
Fig. 1 Intact protein LCMS screening of covalent fragment library against NEL proteins. (A) Cartoon depicting conserved NEL E3 ligase domains; (B) overlaid structures of SspH1 (blue, PDB 9H6W[30]) and IpaH9.8 (green, PDB 6LOL[29]) aligned on NEL domain; (C) workflow of covalent fragment screening using intact LC-MS; (D) fragment labelling percentages for SspH1 and IpaH9.8 with fragments 1–3 highlighted. Recombinant IpaH9.8 (21–545) and SspH1 (161–700) were incubated at 0.5 μM with 50 μM fragments for 24 hours at 4 °C, before fragment labelling was analysed by intact LC-MS; (E) chemical structures of fragments 1–3.
We next analysed the potency of compounds 4–10 against SspH1. The seven compounds were obtained as purified compounds (Table S2) and screened against SspH1 by intact LC-MS (Fig. 3A) with two-fold serial dilution (100–6.25 μM). To confirm which of the two cysteines in the SspH1 161–700 construct were labelled, we repeated the concentration response experiment with a catalytic cysteine mutant of SspH1 (C492K) (Fig. 3B). The complete abrogation of labelling confirmed that all […] compounds labelled the catalytic cysteine of SspH1.
1 μM IpaH9.8 or SspH1 were incubated with […] fragments for 24 hours at 4 °C, in 25 mM HEPES pH 7.5, 50 mM NaCl buffer. Intact protein LC-MS was performed as previously described.[40] The following deconvolution conditions were used for recombinant proteins studied in this work:
Dilution series experiments were performed as for 1st round screening. 1 μM OTUD4, OTUD5 or 0.5 μM HOIL, UbcH5A, SspH2, SspH1 C492K were incubated with 100–6.25 μM compounds for 24 hours at 4 °C, in 25 mM HEPES pH 7.5, 50 mM NaCl buffer. Intact protein LC-MS was performed as previously described.[40] The following deconvolution conditions were used for recombinant proteins studied in this work: […]
Regarding `O=C(CCl)N1CCCN(C(=O)c2ccc(Cl)cc2)CC1` [fragment 1], the protein labelling percentage entry is “greater than 30%”.
Consider `Cl.O=C(CCl)N1CCC(n2nc3ccccc3n2)CC1` [fragment 2], for which the protein labelling percentage result is “greater than 30%”.
Regarding `Cc1cccn2cc(CCNC(=O)CCl)nc12.Cl` [fragment 3], the protein labelling percentage entry was “greater than 30%”.
